# Test results published in patent US20220291217A1, “GASTRIC CANCER MARKER AND EXAMINATION METHOD USING SAME” (JAPANESE FOUNDATION FOR CANCER RESEARCH, priority 2019, published 2022).
# Tested on: SNU-1 cells
# Experiment: Staurosporine-induced apoptosis, Annexin V/7AAD flow cytometry
# Type: cell-based, human
# Conditions: staurosporine 1.0 μM
# Description: Staurosporine (STS), a kinase inhibitor, was added to the above cells at 1.0 μM to induce apoptosis (FIG. 4b). Apoptosis was detected with Annexin V, 7AAD kit (BD Bioscience), and analyzed by flow cytometry, BD FACSCalibur (BD Bioscience).
smiles,measurement,setting,value
"CN[C@@H]1C[C@H]2O[C@@](C)([C@@H]1OC)n1c3ccccc3c3c4c(c5c6ccccc6n2c5c31)C(=O)NC4 [staurosporine, Staurosporine]",cells in which apoptosis is induced,"SNU-1 cells that do not express CA1, within 3 hours",19.3%
same,cells in which apoptosis was induced,SNU-1 cells with forcedly expressed 3'-FLAG-tagged CA1,6.1%
